Experimental findings from patent US10308682B2, “Inhibition of tumor growth with aggregates of small molecules” (BRANDEIS UNIVERSITY, priority 2013, dated 2019) are described below.

One data set concerns MES-SA. The experiment in a line: Cell viability assay (MTT), MES-SA. It is filed as cell-based. How it is done: Cells in exponential growth phase were seeded in a 96 well plate at a concentration of 50,000 cell/well. The cells were allowed to attach to the wells for 24 h at 37° C., 5% CO2, then the culture medium was removed and 100 μL new culture medium containing 1 at gradient concentrations was placed into each well. After culturing at 37° C., 5% CO2 for desired time, each well was added by 10 μL of 5 mg/mL MTT 43-(4,5-Dimethylthiazol-2-yl)-2,5-diphenyltetrazolium bromide), and the plated cells were incubate at dark for 4 h. 100 μL 10% SDS with 0.01 M HCl was added to each well to stop the reduction reaction and to dissolve the purple. After incubation of the cells at 37° C. for overnight, the viability is measured. Data represent the mean±standard deviation of three independent experiments.
The estimation of the threshold concentration of aggregation (320-340 μM) for 1 allows us to examine the cytotoxicity of 1 in monomer and molecular aggregate forms. We first tested the cytotoxicity of 1 towards HeLa cells, the most widely studied cancer cell line, below and above the threshold concentration.

The next data set has as its system HeLa tumors. The data set is described as follows: Xenograft mouse model, HeLa tumors, peritumoral injection. The class given is in vivo, Nu/nu mice. How it is done: FIG. 2 depicts the cytotoxicity of 1. Cell viability assay (MTT) of HeLa cells after 24 and 48 h of treatment with (a) as prepared or (b) filtered medium containing different concentrations of 1. Also shown are MTT assays of 1 towards (c) MCF 7, (d) HepG2, (e) T98G and (f) PC12 cell lines. Data are presented as mean±SD of three independent experiments. (g) Tumor progression curves of mice bearing HeLa tumors. 0.1 mL of 1 at 5 mM or 0.5 mM in PBS buffers or just PBS buffer as control (six doses, starting day 1) was subcutaneous peritumorally injected every three days. Data are presented as mean±SD of relative tumor volume (n=4 for treatment groups and n=3 for control group). *p<0.05, by Student's t test. (at day 19, 5 mM=bottom data point; 0.5 mM=middle data point; control=top data point). (h) A representative image to show the mice, started with similar initial tumor volume (V0), from each group on 19th day of treatment. White arrows point at tumor. See also FIG. 9, FIG. 10, and FIG. 11.
Nu/nu mice were injected with HeLa cells (5×10^6) subcutaneously for tumor development. Treatment was started when average tumor size reached 30 mm^3. Mice were divided into three groups. One group (n=3) received 0.1 mL PBS buffer as control, the other two groups (n=4) received 0.1 mL of 1 at 5 mM or 0.5 mM. Six doses were given every three days starting day 1. Progression of tumor was monitored until 19th day of the treatment.
To further assess the inhibitory effect of molecular aggregates of 1 to cancer cells, we inoculated HeLa cells on nude mice and treated the xenograft tumors with molecular aggregates of 1 by peritumoral injection.

A further data set has as its system HeLa cells. The data set is described as follows: Degradation of 1 in HeLa cells (LC-MS). The class given is in vitro ADME. To be noted: 12 h at 37° C. On the procedure:
FIG. 17 depicts the degradation of 1 in HeLa cells. HeLa cells were lysed after incubation with 1 at different concentrations for 12 h at 37° C. The fragmental residue of 1 detected and quantified by LC-MS was (S)-2-(2-(naphthalen-2-yl) acetamido)-3-phenylpropanoic acid.

Data set [1] in a line: Influence of surfactant Triton X-100 on hydrogel of 1. The class given is physicochemical. As to conditions: 1 at 10 mM. How it is done: FIG. 14 depicts the influence of a surfactant on self-assembly of 1. Triton X-100 was mixed with 1 (10 mM) before and after hydrogel formation. The hydrogel of 1 can tolerate up to 0.1% Triton X-100. Treated with 0.1% Triton X-100, the fibrillar aggregates of 1 tend to cross-link with each other instead of randomly dispersing, but the width of fibrillar aggregates remains unchanged.

Regarding `O=C(Cc1ccc2ccccc2c1)N[C@@H](Cc1ccccc1)C(=O)N[C@@H](Cc1ccccc1)C(=O)O` [Compound 1], the “cytotoxicity towards MES-SA” value in the data set with MES-SA is “decreases of cell viabilities only observed at 400 and 500 μM”. For the same molecule, the “effect on tumor growth” value in the data set on HeLa tumors (0.5 mM (~1 mg/kg), 0.1 mL peritumoral, every three days) is reported as “little effect on tumor growth”. Moreover, the “surface of the skin covering and around the tumor” value with HeLa tumors (5 mM) is reported as “intact (with no ulceration or sclerosis)”. Also, in the data set with HeLa tumors (5 mM (~10 mg/kg), 0.1 mL peritumoral, every three days), the “effect on tumor progression” value is on record as “starts to inhibit tumor progression after 10th day of treatment”. In addition, in the data set on HeLa tumors (5 mM, 19th day of treatment), the “tumor size versus 0.5 mM group and control group” value is “significantly smaller”. Further, the body weight change entry in the data set with HeLa tumors (0.1 mL of 5 mM or 0.5 mM) is reported as “no significant weight loss or weight gain”. The “degradation of 1” value in the data set on HeLa cells is on record as “rather fast”. For the same molecule, in data set [1], the “Triton X-100 tolerated by the hydrogel” value is “up to 0.1 % Triton X-100”.
